Some test systems named below: M14; SF-268; TK-10; OVCAR-5; OVCAR-4; SR; NCI-H23; MOLT-4; CCRF-CEM; HT-29; RXF 393; UACC-62; SF-539; NCI-H226; OVCAR-3; DU-145; HCT-15; K562; NCI-H460; 786-0.
Experiment in all cases: inhibition of tumour cell growth, NCI panel, 48 h

Experimental findings from ChEMBL document CHEMBL1201862, “PubChem BioAssay data set” (2004) are described below.

Structures are written as SMILES.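 Results reflect a 48-hour exposure of cells in 96-well plates to compound at five concentrations. Here, GI50 denotes the concentration required for 50% inhibition of growth.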 Activity calls are given as the source filed them. Cut-off read from the data, not from the text of the source: active = GI50 up to about 1.1 µM and inactive = higher. Where only a bound is given, the exact number is not on record here.

Consider `CC(C)(C)NC1=NC(C(F)(F)F)(C(F)(F)F)NC(=O)N1`, for which the GI50 is 44.5 µM (inactive) in the experiment with M14; > 100 µM (inactive) in the experiment on SF-268; 67.8 µM (inactive) in the experiment with TK-10; > 100 µM (inactive) in the experiment on OVCAR-5; 36.3 µM (inactive) in the experiment with OVCAR-4; 37 µM (inactive) in the experiment on SR. The GI50 with NCI-H23 was > 100 µM (inactive); in the experiment with MOLT-4, 30.2 µM (inactive); in the experiment on CCRF-CEM it was 31.2 µM (inactive); in the experiment with HT-29, 36.9 µM (inactive); in the experiment with RXF 393, > 100 µM (inactive); in the experiment on UACC-62, 54.6 µM (inactive). The GI50 is > 100 µM (inactive) in the experiment on SF-539; > 100 µM (inactive) in the experiment with NCI-H226; 77.4 µM (inactive) in the experiment on OVCAR-3; > 100 µM (inactive) in the experiment with DU-145; 57 µM with HCT-15; 30.7 µM (inactive) in the experiment on K562. The GI50 in the experiment on NCI-H460 is 47.4 µM (inactive); in the experiment with 786-0 it was 52.4 µM (inactive).
As to `COC(=O)/C=C/C1(O)C=CC(=O)C=C1`, the GI50 in the experiment with M14 is 1.79 µM (inactive); in the experiment with SF-268, 2.22 µM (inactive); in the experiment on TK-10, 5.37 µM (inactive); in the experiment with OVCAR-5 it was 5.78 µM (inactive); in the experiment with OVCAR-4 it was 3.94 µM (inactive); in the experiment on SR, 2.55 µM (inactive). Also, the GI50 in the experiment on NCI-H23 is 3.31 µM (inactive); with MOLT-4, 2.02 µM (inactive); in the experiment with CCRF-CEM, 1.77 µM (inactive); with HT-29 it was 2.51 µM (inactive); in the experiment on RXF 393 it was 3.12 µM (inactive); in the experiment on UACC-62, 3 µM (inactive). For the same compound, the GI50 in the experiment on SF-539 was 2.15 µM (inactive); in the experiment on NCI-H226 it was 19.6 µM (inactive); with OVCAR-3, 2.17 µM (inactive); in the experiment with DU-145 it was 2.59 µM (inactive); in the experiment with HCT-15, 2.66 µM; in the experiment on K562, 3.15 µM (inactive). Besides, the GI50 in the experiment with NCI-H460 was 16.3 µM (inactive); with 786-0, 2.23 µM (inactive).
Consider `CCOC(=O)Nn1c(C)nnc1-c1ccccc1`, for which the GI50 with M14, in the experiment with SF-268, in the experiment on TK-10, in the experiment on OVCAR-5, in the experiment with OVCAR-4 and in the experiment on SR was > 100 µM (inactive) throughout. In addition, the GI50 in the experiment on NCI-H23, with MOLT-4, in the experiment on CCRF-CEM, in the experiment on HT-29, with RXF 393 and with UACC-62 was > 100 µM (inactive) throughout. The GI50 in the experiment with SF-539 is > 100 µM (inactive); with NCI-H226, > 100 µM (inactive); with OVCAR-3 it was > 100 µM (inactive); in the experiment on DU-145 it was > 100 µM (inactive); in the experiment on HCT-15 it was more than 100 µM; in the experiment on K562, > 100 µM (inactive). The GI50 with NCI-H460 and in the experiment with 786-0 was > 100 µM (inactive) each time.
Turning to `COc1ccc(/C=C(\C#N)c2ccccn2)cc1OC`, the GI50 in the experiment with M14 was > 100 µM (inactive); with SF-268 it was 33 µM (inactive); with TK-10 it was 63.7 µM (inactive); in the experiment on OVCAR-5, 51.4 µM (inactive); with OVCAR-4, 73.1 µM (inactive); in the experiment on SR it was 33.8 µM (inactive). Further, the GI50 was 43.7 µM (inactive) in the experiment on NCI-H23; 57.4 µM (inactive) in the experiment with MOLT-4; 60.5 µM (inactive) in the experiment with CCRF-CEM; 43 µM (inactive) with HT-29; 23.7 µM (inactive) in the experiment with RXF 393; 58.7 µM (inactive) in the experiment on UACC-62. The GI50 in the experiment on SF-539 is 31.9 µM (inactive); with NCI-H226, 27.2 µM (inactive); in the experiment on OVCAR-3 it was 86.1 µM (inactive); in the experiment with DU-145 it was 32.1 µM (inactive); with HCT-15, 32.2 µM; in the experiment on K562, 85.5 µM (inactive). For the same compound, the GI50 was 34.3 µM (inactive) in the experiment with NCI-H460 and 43.9 µM (inactive) with 786-0.
As to `CC1(C)CC(=O)C(C(c2cccc(O)c2O)C2C(=O)CC(C)(C)CC2=O)C(=O)C1`, the GI50 with M14 was > 100 µM (inactive); in the experiment on SF-268 it was 73.8 µM (inactive); in the experiment on TK-10, > 100 µM (inactive); with OVCAR-5, > 100 µM (inactive); with OVCAR-4 it was > 100 µM (inactive); in the experiment with SR, 36 µM (inactive). The GI50 was > 100 µM (inactive) with NCI-H23; 30.3 µM (inactive) in the experiment with MOLT-4; 20.1 µM (inactive) in the experiment on CCRF-CEM; > 100 µM (inactive) in the experiment with HT-29; > 100 µM (inactive) in the experiment with RXF 393; > 100 µM (inactive) in the experiment with UACC-62. Besides, the GI50 in the experiment with SF-539 was > 100 µM (inactive); in the experiment on NCI-H226, > 100 µM (inactive); in the experiment with OVCAR-3, 97.7 µM (inactive); with DU-145 it was > 100 µM (inactive); with HCT-15, 57.1 µM; with K562, 92.9 µM (inactive). In addition, the GI50 is > 100 µM (inactive) in the experiment with NCI-H460 and 52.6 µM (inactive) in the experiment with 786-0.
As for `C=C(CO[Si](C)(C)C(C)(C)C)C(C)=O`, the GI50 is 13.1 µM (inactive) in the experiment with M14; 31.4 µM (inactive) in the experiment on SF-268; > 100 µM (inactive) with TK-10; 31 µM (inactive) with OVCAR-5; 21 µM (inactive) with OVCAR-4; 3.55 µM (inactive) in the experiment on SR. Further, the GI50 in the experiment with NCI-H23 was 26.3 µM (inactive); in the experiment with MOLT-4, 2.18 µM (inactive); in the experiment with CCRF-CEM it was 0.678 µM (active); in the experiment on HT-29 it was 19.5 µM (inactive); in the experiment on RXF 393, 14.5 µM (inactive); with UACC-62 it was 15.7 µM (inactive). Also, the GI50 in the experiment with SF-539 was 39.1 µM (inactive); in the experiment on NCI-H226, > 69.3 µM (inactive); in the experiment on OVCAR-3, 20.4 µM (inactive); with DU-145, > 100 µM (inactive); in the experiment on HCT-15, 13.9 µM; with K562, 6.73 µM (inactive). For the same compound, the GI50 is > 77.4 µM (inactive) in the experiment on NCI-H460 and 17.2 µM (inactive) with 786-0.
With `COc1ccc(NC2Oc3cc4c(cc3C(c3cc(OC)c(OC)c(OC)c3)C2C)OCO4)cc1` (stereo not given), the GI50 in the experiment on M14 is 0.294 µM (active); in the experiment with SF-268, 0.959 µM (active); in the experiment with TK-10, 5.33 µM (inactive); in the experiment on OVCAR-5 it was 2.17 µM (inactive); in the experiment with OVCAR-4, 0.566 µM (active); in the experiment on SR it was 0.352 µM (active). For the same compound, the GI50 is 0.847 µM (active) in the experiment with NCI-H23; 0.422 µM (active) in the experiment with MOLT-4; 0.944 µM (active) with CCRF-CEM; 0.365 µM (active) in the experiment with HT-29; 0.437 µM (active) in the experiment with RXF 393; 0.597 µM (active) in the experiment on UACC-62. Besides, the GI50 is 0.222 µM (active) in the experiment with SF-539; 0.552 µM (active) in the experiment on NCI-H226; 0.255 µM (active) with OVCAR-3; 0.574 µM (active) in the experiment with DU-145; 0.485 µM in the experiment with HCT-15; 0.223 µM (active) with K562. Also, the GI50 with NCI-H460 was 0.429 µM (active); with 786-0, 0.544 µM (active).
On to `C[C@]12CC[C@H]3[C@@H](CCC4=CC(=O)CC[C@@H]43)[C@@H]1CC[C@@H]2OC1(O)C(=O)c2ccccc2C1=O`, for which the GI50 in the experiment with M14 was 44.6 µM (inactive); in the experiment on SF-268, 34.1 µM (inactive); with TK-10, 32.5 µM (inactive); with OVCAR-5 it was 27.6 µM (inactive); in the experiment on OVCAR-4 it was 91.4 µM (inactive); in the experiment with SR, 35.6 µM (inactive). Also, the GI50 with NCI-H23 is 27.1 µM (inactive); in the experiment with MOLT-4, 33.3 µM (inactive); in the experiment with CCRF-CEM, 31.4 µM (inactive); with HT-29, 35.1 µM (inactive); in the experiment with RXF 393, 33.3 µM (inactive); with UACC-62, 11.7 µM (inactive). The GI50 in the experiment with SF-539 was 32.4 µM (inactive); in the experiment on NCI-H226, > 100 µM (inactive); in the experiment with OVCAR-3 it was 39.4 µM (inactive); in the experiment with DU-145, 16.5 µM (inactive); in the experiment on HCT-15 it was 37.8 µM; with K562 it was 35.3 µM (inactive). Besides, the GI50 in the experiment with NCI-H460 was 67 µM (inactive); in the experiment on 786-0, 24.9 µM (inactive).
As to `O=C(OCC(OC(=O)c1ccccc1)C1CC(C2(O)CCCCC2)C(=O)O1)c1ccccc1` (stereo not given), the GI50 was > 25 µM (inactive) in the experiment on M14; > 25 µM (inactive) in the experiment with SF-268; > 25 µM (inactive) with TK-10; > 25 µM (inactive) with OVCAR-5; > 25 µM (inactive) in the experiment on OVCAR-4; 7.59 µM (inactive) in the experiment on SR. The GI50 with NCI-H23 is 0.05 µM (active); in the experiment on MOLT-4 it was 6.64 µM (inactive); with CCRF-CEM, 13.4 µM (inactive); in the experiment on HT-29 it was 14 µM (inactive); in the experiment on RXF 393, > 25 µM (inactive); with UACC-62 it was 0.0462 µM (active). For the same compound, the GI50 in the experiment on SF-539 was > 25 µM (inactive); in the experiment on NCI-H226, > 25 µM (inactive); in the experiment with OVCAR-3, > 25 µM (inactive); with DU-145, > 25 µM (inactive); with HCT-15, more than 25 µM; in the experiment on K562 it was 15.9 µM (inactive). For the same compound, the GI50 in the experiment with NCI-H460 is 9.18 µM (inactive); in the experiment on 786-0, > 25 µM (inactive).
On to `Nc1ccc(S(=O)(=O)Nc2nc3ccccc3nc2N2CCCCC2)cc1`, for which the GI50 was 91 µM (inactive) in the experiment with M14; > 100 µM (inactive) in the experiment on SF-268; 37.6 µM (inactive) in the experiment with TK-10; > 100 µM (inactive) in the experiment on OVCAR-5; 24.2 µM (inactive) in the experiment on OVCAR-4; 60.5 µM (inactive) with SR. Also, the GI50 in the experiment with NCI-H23 was 36.1 µM (inactive); in the experiment with MOLT-4 it was 27.5 µM (inactive); with CCRF-CEM it was 48.5 µM (inactive); with HT-29, > 100 µM (inactive); in the experiment with RXF 393 it was 55.2 µM (inactive); with UACC-62 it was > 100 µM (inactive). Moreover, the GI50 is > 100 µM (inactive) with SF-539; > 100 µM (inactive) in the experiment with NCI-H226; > 100 µM (inactive) with OVCAR-3; > 100 µM (inactive) in the experiment with DU-145; 78.7 µM in the experiment on HCT-15; > 100 µM (inactive) with K562. The figures for the GI50 in the experiment on NCI-H460 and with 786-0 were 79.3 µM (inactive) and > 100 µM (inactive), respectively.
